Assay results reported in EP4603105A1, “PHARMACEUTICAL COMPOSITION CONTAINING CYCLIC COMPOUND HAVING SELECTIVE KRAS INHIBITORY EFFECT AGAINST HRAS AND NRAS” (CHUGAI SEIYAKU KABUSHIKI KAISHA, priority 2022, dated 2024).

Legend:
[1] = target: GDP-bound NRAS wild-type protein (Homo sapiens, UniProt P01111); assay: Binding to NRAS by surface plasmon resonance (SPR), KD and KD ratio to KRAS
How it was run: (§1)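 SPR, 30°C: Avi-biotin RAS·GDP captured via Biotin CAPture (~100–300 RU); running buffer HBS pH 7.4, 1 mM DTT, 10 mM MgCl2, 0.01% Tween 20, 10 µM GDP, 4% DMSO. Single-cycle kinetics, 100 µL/min, 75 s injections; 1:1 model → KD.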

HRAS wild-type protein = HRAS wild-type protein (Homo sapiens, UniProt P01112); assay: Binding to HRAS by surface plasmon resonance (SPR), KD and KD ratio to KRAS
How it was run: as §1

[2] = test system: human lung cancer strain NCI-H441; type: cell-based
How it was run: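 Proliferation was scored by […] measured after the reagent was added to cultures kept at 37°C in 5% carbon dioxide.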

[3] = ratio of KD for GDP-bound NRAS wild-type protein to KD for KRAS
[4] = ratio of KD for HRAS wild-type protein to KD for KRAS
[5] = ratio of KD with respect to GDP-bound NRAS wild-type protein to KD with respect to KRAS
[6] = ratio of KD with respect to HRAS wild-type protein to KD with respect to KRAS

GDP-bound NRAS wild-type protein, sequence (P01111 whole entry): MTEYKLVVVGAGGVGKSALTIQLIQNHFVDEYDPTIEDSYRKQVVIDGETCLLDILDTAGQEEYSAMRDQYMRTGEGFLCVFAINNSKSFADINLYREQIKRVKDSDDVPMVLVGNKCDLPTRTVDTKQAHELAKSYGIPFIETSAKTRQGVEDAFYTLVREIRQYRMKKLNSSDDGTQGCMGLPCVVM
HRAS wild-type protein, sequence (P01112 whole entry): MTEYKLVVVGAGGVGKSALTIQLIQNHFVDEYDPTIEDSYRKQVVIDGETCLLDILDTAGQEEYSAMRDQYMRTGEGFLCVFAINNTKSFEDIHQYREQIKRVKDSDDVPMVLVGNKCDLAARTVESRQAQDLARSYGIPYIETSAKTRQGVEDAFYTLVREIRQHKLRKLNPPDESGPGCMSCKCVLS

| Compound | NRAS /KRAS [1, 3] | HRAS /KRAS (HRAS wild-type protein; [4]) | IC50 [2] | NRAS /KRAS [1, 5] | HRAS /KRAS (HRAS wild-type protein; [6]) |
| --- | --- | --- | --- | --- | --- |
| CCO[C@@H]1C[C@H]2C(=O)NC3(CCC3)C(=O)N(C)[C@@H](C3CCCC3)C(=O)N(C)[C@H](C(=O)N(C)C)CC(=O)N(C)[C@@H](CC(C)(C)C)C(=O)N[C@@H]([C@@H](C)CC)C(=O)N(C)CC(=O)N(C)[C@H]3C/C=C\CCN(C3=O)[C@@H](Cc3ccc(C(F)(F)F)cc3)C(=O)N(C)CC(=O)N[C@@H](CCc3cc(F)c(C(F)(F)F)c(F)c3)C(=O)N2C1 [PP1117] | A (a compound having 10 or more and less than 20 is denoted as A) | A (a compound having 10 or more and less than 20 is denoted as A) | 16.5 nM | – | – |
| CCO[C@@H]1C[C@H]2C(=O)NC3(CCC3)C(=O)N(C)[C@@H](C3CCCC3)C(=O)N(C)[C@H](C(=O)N(C)C)CC(=O)N(C)[C@@H](CSC)C(=O)N[C@@H]([C@@H](C)CC)C(=O)N(C)CC(=O)N(C)[C@H]3C/C=C\CCN(C3=O)[C@@H](Cc3ccc(C(F)(F)F)cc3)C(=O)N(C)CC(=O)N[C@@H](CCc3cc(F)c(C(F)(F)F)c(F)c3)C(=O)N2C1 [PP1119] | A (a compound having 10 or more and less than 20 is denoted as A) | A (a compound having 10 or more and less than 20 is denoted as A) | 25.5 nM | – | – |
| CCO[C@@H]1C[C@H]2C(=O)NC3(CCC3)C(=O)N(C)[C@@H](C3CCCC3)C(=O)N(C)[C@H](C(=O)N(C)C)CC(=O)N(C)[C@@H](CC(F)F)C(=O)N[C@@H]([C@@H](C)CC)C(=O)N(C)CC(=O)N(C)[C@H]3C/C=C\CCN(C3=O)[C@@H](Cc3ccc(C(F)(F)F)cc3)C(=O)N(C)CC(=O)N[C@@H](CCc3cc(F)c(C(F)(F)F)c(F)c3)C(=O)N2C1 [PP1120] | A (a compound having 10 or more and less than 20 is denoted as A) | A (a compound having 10 or more and less than 20 is denoted as A) | 20.6 nM | – | – |
| CCO[C@@H]1C[C@H]2C(=O)NC3(CCC3)C(=O)N(C)[C@@H](C3CCCC3)C(=O)N(C)[C@H](C(=O)N(C)C)CC(=O)N(C)[C@@H](CCC(F)F)C(=O)N[C@@H]([C@@H](C)CC)C(=O)N(C)CC(=O)N(C)[C@H]3C/C=C\CCN(C3=O)[C@@H](Cc3ccc(C(F)(F)F)cc3)C(=O)N(C)CC(=O)N[C@@H](CCc3cc(F)c(C(F)(F)F)c(F)c3)C(=O)N2C1 [PP1121] | A (a compound having 10 or more and less than 20 is denoted as A) | A (a compound having 10 or more and less than 20 is denoted as A) | 17.3 nM | – | – |
| CCO[C@@H]1C[C@H]2C(=O)NC3(CCC3)C(=O)N(C)[C@@H](C3CCCC3)C(=O)N(C)[C@H](C(=O)N(C)C)CC(=O)N(C)[C@@H](CCC(=O)N(C)C)C(=O)N[C@@H]([C@@H](C)CC)C(=O)N(C)CC(=O)N(C)[C@H]3C/C=C\CCN(C3=O)[C@@H](Cc3ccc(C(F)(F)F)cc3)C(=O)N(C)CC(=O)N[C@@H](CCc3cc(F)c(C(F)(F)F)c(F)c3)C(=O)N2C1 [PP1122] | A (a compound having 10 or more and less than 20 is denoted as A) | B (a compound having 3 or more and less than 10 is denoted as B) | 275 nM | – | – |
| CCO[C@@H]1C[C@H]2C(=O)NC3(CCC3)C(=O)N(C)[C@@H](C3CCCC3)C(=O)N(C)[C@H](C(=O)N(C)C)CC(=O)N(C)[C@@H](Cc3cccs3)C(=O)N[C@@H]([C@@H](C)CC)C(=O)N(C)CC(=O)N(C)[C@H]3C/C=C\CCN(C3=O)[C@@H](Cc3ccc(C(F)(F)F)cc3)C(=O)N(C)CC(=O)N[C@@H](CCc3cc(F)c(C(F)(F)F)c(F)c3)C(=O)N2C1 [PP1123] | A (a compound having 10 or more and less than 20 is denoted as A) | B (a compound having 3 or more and less than 10 is denoted as B) | 13.4 nM | – | – |
| CCO[C@@H]1C[C@H]2C(=O)NC3(CCC3)C(=O)N(C)[C@@H](C3CCCC3)C(=O)N(C)[C@H](C(=O)N(C)C)CC(=O)N(C)[C@@H](CC(F)(F)F)C(=O)N[C@@H]([C@@H](C)CC)C(=O)N(C)CC(=O)N(C)[C@H]3C/C=C\CCN(C3=O)[C@@H](Cc3ccc(C(F)(F)F)cc3)C(=O)N(C)CC(=O)N[C@@H](CCc3cc(F)c(C(F)(F)F)c(F)c3)C(=O)N2C1 [PP1124] | A (a compound having 10 or more and less than 20 is denoted as A) | B (a compound having 3 or more and less than 10 is denoted as B) | 12.4 nM | – | – |
| CCO[C@@H]1C[C@H]2C(=O)NC3(CCC3)C(=O)N(C)[C@@H](C3CCCC3)C(=O)N(C)[C@H](C(=O)N(C)C)CC(=O)N(C)[C@@H](CC3CCCCC3)C(=O)N[C@@H]([C@@H](C)CC)C(=O)N(C)CC(=O)N(C)[C@H]3C/C=C\CCN(C3=O)[C@@H](Cc3ccc(C(F)(F)F)cc3)C(=O)N(C)CC(=O)N[C@@H](CCc3cc(F)c(C(F)(F)F)c(F)c3)C(=O)N2C1 [PP1125] | A (a compound having 10 or more and less than 20 is denoted as A) | A (a compound having 10 or more and less than 20 is denoted as A) | 15 nM | – | – |
| CCO[C@@H]1C[C@H]2C(=O)NC3(CCC3)C(=O)N(C)[C@@H](C3CCCC3)C(=O)N(C)[C@H](C(=O)N(C)C)CC(=O)N(C)[C@@H](Cc3cccc(F)c3)C(=O)N[C@@H]([C@@H](C)CC)C(=O)N(C)CC(=O)N(C)[C@H]3C/C=C\CCN(C3=O)[C@@H](Cc3ccc(C(F)(F)F)cc3)C(=O)N(C)CC(=O)N[C@@H](CCc3cc(F)c(C(F)(F)F)c(F)c3)C(=O)N2C1 [PP1126] | A (a compound having 10 or more and less than 20 is denoted as A) | A (a compound having 10 or more and less than 20 is denoted as A) | 7.1 nM | – | – |
| CCO[C@@H]1C[C@H]2C(=O)NC3(CCC3)C(=O)N(C)[C@@H](C3CCCC3)C(=O)N(C)[C@H](C(=O)N(C)C)CC(=O)N(C)[C@@H](Cc3cccc(Cl)c3)C(=O)N[C@@H]([C@@H](C)CC)C(=O)N(C)CC(=O)N(C)[C@H]3C/C=C\CCN(C3=O)[C@@H](Cc3ccc(C(F)(F)F)cc3)C(=O)N(C)CC(=O)N[C@@H](CCc3cc(F)c(C(F)(F)F)c(F)c3)C(=O)N2C1 [PP1127] | AA (a compound having 20 or more is denoted as AA) | A (a compound having 10 or more and less than 20 is denoted as A) | 11.9 nM | – | – |
| CC[C@H](C)[C@@H]1NC(=O)[C@H](CC)N(C)C(=O)C[C@@H](C(=O)N(C)C)N(C)C(=O)[C@H](C2CCCC2)N(C)C(=O)C2(CCC2)NC(=O)[C@@H]2C[C@H](OC)CN2C(=O)[C@H](CCc2cc(F)c(C(F)(F)F)c(F)c2)NC(=O)CN(C)C(=O)[C@H](Cc2ccc(C(F)(F)F)cc2)N2CC/C=C\C[C@@H](C2=O)N(C)C(=O)CN(C)C1=O [PP1128] | AA (a compound having 20 or more is denoted as AA) | A (a compound having 10 or more and less than 20 is denoted as A) | 121 nM | – | – |
| CCO[C@@H]1C[C@H]2C(=O)NC3(CCC3)C(=O)N(C)[C@@H](C3CCCC3)C(=O)N(C)[C@H](C(=O)N3C[C@@H](C)O[C@@H](C)C3)CC(=O)N(C)[C@@H](CC(C)C)C(=O)N[C@@H]([C@@H](C)CC)C(=O)N(C)CC(=O)N(C)[C@H]3CCCCCN(C3=O)[C@@H](Cc3ccc(F)cc3)C(=O)N(C)CC(=O)N[C@@H](CCc3ccc(C(F)(F)F)c(Cl)c3)C(=O)N2C1 [PP1153] | – | – | 15.5 nM | B (a compound having 3 or more and less than 10 is denoted as B) | B (a compound having 3 or more and less than 10 is denoted as B) |
| CCO[C@@H]1C[C@H]2C(=O)NC3(CCC3)C(=O)N(C)[C@@H](C3CCCC3)C(=O)N(C)[C@H](C(=O)N(C)CC)CC(=O)N(C)[C@@H](CC(C)C)C(=O)N[C@@H]([C@@H](C)CC)C(=O)N(C)CC(=O)N(C)[C@H]3C/C=C\CCN(C3=O)[C@@H](Cc3ccc(C(F)(F)F)cc3)C(=O)N(C)CC(=O)N[C@@H](CCc3cc(F)c(C(F)(F)F)c(F)c3)C(=O)N2C1 [PP1300] | – | – | 9.5 nM | A (a compound having 10 or more and less than 20 is denoted as A) | A (a compound having 10 or more and less than 20 is denoted as A) |
| CCO[C@@H]1C[C@H]2C(=O)NC3(CCC3)C(=O)N(C)[C@@H](C3CCCC3)C(=O)N(C)[C@H](C(=O)N(C)CC)CC(=O)N(C)[C@@H](CC3CC3)C(=O)N[C@@H]([C@@H](C)CC)C(=O)N(C)CC(=O)N(C)[C@H]3C/C=C\CCN(C3=O)[C@@H](Cc3ccc(C(F)(F)F)cc3)C(=O)N(C)CC(=O)N[C@@H](CCc3cc(F)c(C(F)(F)F)c(F)c3)C(=O)N2C1 [PP1301] | – | – | 4.7 nM | A (a compound having 10 or more and less than 20 is denoted as A) | A (a compound having 10 or more and less than 20 is denoted as A) |
| CCO[C@@H]1C[C@H]2C(=O)NC3(CCC3)C(=O)N(C)[C@@H](C3CCCC3)C(=O)N(C)[C@H](C(=O)N(C)CC)CC(=O)N(C)[C@@H](C)C(=O)N[C@@H]([C@@H](C)CC)C(=O)N(C)CC(=O)N(C)[C@H]3C/C=C\CCN(C3=O)[C@@H](Cc3ccc(C(F)(F)F)cc3)C(=O)N(C)CC(=O)N[C@@H](CCc3cc(F)c(C(F)(F)F)c(F)c3)C(=O)N2C1 [PP1302] | – | – | 9.2 nM | A (a compound having 10 or more and less than 20 is denoted as A) | A (a compound having 10 or more and less than 20 is denoted as A) |
